Experimental data as given in paper PMC8893300, “A Dynamic Mass Redistribution Assay for the Human Sweet Taste Receptor Uncovers G-Protein Dependent Biased Ligands” (Frontiers in Pharmacology, 2022).
Read-outs that look alike come from different tables or passages of the source. Marks after values point to notes of the source that are not given here.

Target: T1, human sweet taste receptor (hT1R2/hT1R3) coupled to Gα15 (Homo sapiens, UniProt Q7RTX0+Q8TE23)
T1 construct: expressed in transfected cells
T1 sequence (Q8TE23 20-839): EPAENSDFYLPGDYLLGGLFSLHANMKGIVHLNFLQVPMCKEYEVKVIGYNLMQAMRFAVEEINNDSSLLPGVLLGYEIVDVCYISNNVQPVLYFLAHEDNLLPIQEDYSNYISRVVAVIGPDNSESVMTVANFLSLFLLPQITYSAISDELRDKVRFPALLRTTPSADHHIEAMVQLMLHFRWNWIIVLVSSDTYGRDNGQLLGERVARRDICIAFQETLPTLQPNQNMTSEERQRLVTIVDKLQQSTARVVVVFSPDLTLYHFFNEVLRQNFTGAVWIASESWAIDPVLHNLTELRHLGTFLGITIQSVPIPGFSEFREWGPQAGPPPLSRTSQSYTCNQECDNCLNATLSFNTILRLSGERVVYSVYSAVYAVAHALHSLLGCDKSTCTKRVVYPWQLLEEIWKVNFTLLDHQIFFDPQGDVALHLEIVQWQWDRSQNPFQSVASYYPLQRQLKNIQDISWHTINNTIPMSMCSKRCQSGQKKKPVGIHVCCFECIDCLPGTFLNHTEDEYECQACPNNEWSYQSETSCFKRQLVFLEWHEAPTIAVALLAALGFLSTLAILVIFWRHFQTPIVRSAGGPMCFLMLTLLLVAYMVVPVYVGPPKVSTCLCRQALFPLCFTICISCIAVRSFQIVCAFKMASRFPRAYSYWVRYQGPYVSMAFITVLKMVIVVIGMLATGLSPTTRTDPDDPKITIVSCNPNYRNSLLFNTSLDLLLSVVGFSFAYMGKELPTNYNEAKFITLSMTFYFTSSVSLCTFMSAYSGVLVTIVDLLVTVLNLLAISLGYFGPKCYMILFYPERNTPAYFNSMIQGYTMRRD
T1 sequence (Q7RTX0 21-852): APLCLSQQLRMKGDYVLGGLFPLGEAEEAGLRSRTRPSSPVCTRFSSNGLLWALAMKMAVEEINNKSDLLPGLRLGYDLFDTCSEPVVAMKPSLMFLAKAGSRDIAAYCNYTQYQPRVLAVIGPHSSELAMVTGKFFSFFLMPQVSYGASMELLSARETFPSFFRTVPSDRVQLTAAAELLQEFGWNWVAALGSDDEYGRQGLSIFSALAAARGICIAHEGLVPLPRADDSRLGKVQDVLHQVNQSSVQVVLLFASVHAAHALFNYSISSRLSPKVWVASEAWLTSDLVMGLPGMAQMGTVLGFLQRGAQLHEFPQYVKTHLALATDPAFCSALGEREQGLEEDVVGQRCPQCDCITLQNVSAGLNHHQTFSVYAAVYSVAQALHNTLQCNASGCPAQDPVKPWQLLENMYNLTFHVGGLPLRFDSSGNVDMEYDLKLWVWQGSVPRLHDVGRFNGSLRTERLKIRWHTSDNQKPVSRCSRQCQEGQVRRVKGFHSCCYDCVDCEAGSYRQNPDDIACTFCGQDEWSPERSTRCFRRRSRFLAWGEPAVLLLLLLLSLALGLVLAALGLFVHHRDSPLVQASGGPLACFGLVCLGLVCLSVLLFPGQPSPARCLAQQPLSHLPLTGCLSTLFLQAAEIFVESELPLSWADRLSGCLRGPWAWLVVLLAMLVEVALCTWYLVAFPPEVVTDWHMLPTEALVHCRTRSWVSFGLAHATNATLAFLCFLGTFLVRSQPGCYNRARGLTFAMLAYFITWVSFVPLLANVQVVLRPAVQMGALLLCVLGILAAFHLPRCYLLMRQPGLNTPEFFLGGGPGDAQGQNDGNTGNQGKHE
Assay: FLIPR calcium mobilization assay, R2/R3 U2OS cells transduced with Gα15 baculovirus
Assay type: cell-based
Details: for ΔlogR FLIPR Mean: FLIPR-Gα15, operational model, logR minus sucralose logR; for Activity in FLIPR assay Emax: Gα15, top asymptote of dose-response normalized to 1 mM sucralose; for EC50: R2/R3 U2OS cells expressing Gα15; for Bias factor: inverse log of ΔΔlogR, FLIPR-Gα15 vs DMR; for ΔΔlogR Mean: ΔlogR FLIPR-Gα15 minus ΔlogR DMR; for fold difference DMR EC50 vs FLIPR EC50 (more potent in FLIPR): DMR EC50 over FLIPR-Gα15 EC50

[1] = read-out: Activity in FLIPR assay EC50
[2] = read-out: Activity in FLIPR assay pEC50 (converted)

Row | Compound | ΔlogR FLIPR Mean | Activity in FLIPR assay Emax | EC50 [1] | EC50 [2] | Bias factor | ΔΔlogR Mean | fold difference DMR EC50 vs FLIPR EC50 (more potent in FLIPR)
1 | COC(=O)[C@H](Cc1ccccc1)NC(=O)[C@H](CC(=O)O)NCCC(C)(C)C [Neotame] | 1.65 | 116**** | 1600 nM | 1530 nM | 3.2 | 0.50 | 
2 | CC(C)Oc1ccc(NC(=S)NCc2ccc[nH]2)cc1 [S819] | 3.11 | 181**** | 70 nM | 74.5 nM | 3.9 | 0.59 | about 10 times
3 | CC(C)Oc1ccc(NC(=S)NCc2cccs2)cc1 [S5227] | 2.52 | 177**** | 300 nM | 335 nM | 4.8 | 0.68 | about 10 times
